From the NIST ThermoML archive (doi:10.1016/j.jct.2017.06.001)
Numbers after ± are expanded uncertainties.

Assay: xn = mol fraction of the nth substance listed
Details: 100 kPa, Liquid; for mass density: 303.15 K, Vibrating tube method; for speed of sound: 308.15 K, Frequency=5 MHz, Pulse-echo method

OCCCCCO [1,5-pentanediol] + O
Details	mass density [kg/m3]	speed of sound [m/s]
x1 = 0.0001	–	1519.6 ± 1.1
x1 = 0.0003	–	1520.1 ± 1.1
x1 = 0.0005	–	1520.7 ± 1.1
x1 = 0.0007	–	1521.5 ± 1.1
x1 = 0.001	–	1522.4 ± 1.1
x1 = 0.0014	–	1523.4 ± 1.1
x1 = 0.0018	–	1524.7 ± 1.2
x1 = 0.0023	–	1526.2 ± 1.2
x1 = 0.0028	–	1527.9 ± 1.2
x1 = 0.0034	–	1529.7 ± 1.2
x1 = 0.004	–	1531.4 ± 1.2
x1 = 0.0047	–	1533.5 ± 1.2
x1 = 0.005	995.24 ± 0.52	–
x1 = 0.0055	–	1535.7 ± 1.2
x1 = 0.0064	–	1538.1 ± 1.2
x1 = 0.0073	–	1540.8 ± 1.2
x1 = 0.0083	–	1543.6 ± 1.2
x1 = 0.0094	–	1546.5 ± 1.2
x1 = 0.0101	995.18 ± 1	–
x1 = 0.0105	–	1549.3 ± 1.2
x1 = 0.0116	–	1552.2 ± 1.2
x1 = 0.0129	–	1555.4 ± 1.2
x1 = 0.0141	–	1558.3 ± 1.2
x1 = 0.0154	–	1561.5 ± 1.2
x1 = 0.0167	–	1564.5 ± 1.2
x1 = 0.0181	–	1567.6 ± 1.2
x1 = 0.0195	–	1570.7 ± 1.2
x1 = 0.0196	995.46 ± 1	–
x1 = 0.0211	–	1574.1 ± 1.2
x1 = 0.0225	–	1577 ± 1.2
x1 = 0.0238	–	1579.8 ± 1.2
x1 = 0.0251	995.87 ± 1	–
x1 = 0.0252	–	1582.6 ± 1.2
x1 = 0.0268	–	1585.5 ± 1.2
x1 = 0.0283	–	1588.5 ± 1.2
x1 = 0.0298	–	1591.2 ± 1.2
x1 = 0.0304	996.33 ± 1	–
x1 = 0.0316	–	1594.3 ± 1.2
x1 = 0.0336	–	1597.7 ± 1.2
x1 = 0.0351	–	1600.2 ± 1.2
x1 = 0.0367	–	1602.6 ± 1.2
x1 = 0.0384	–	1605.2 ± 1.2
x1 = 0.0403	–	1608.1 ± 1.2
x1 = 0.0417	–	1610 ± 1.2
x1 = 0.0436	–	1612.7 ± 1.2
x1 = 0.0459	–	1615.8 ± 1.2
x1 = 0.0481	–	1618.5 ± 1.2
x1 = 0.05	997.59 ± 1	–
x1 = 0.0505	–	1621.5 ± 1.2
x1 = 0.0528	–	1624 ± 1.2
x1 = 0.0551	–	1626.6 ± 1.2
x1 = 0.0574	–	1629 ± 1.2
x1 = 0.0594	–	1631 ± 1.2
x1 = 0.062	–	1633.4 ± 1.2
x1 = 0.0648	–	1635.9 ± 1.2
x1 = 0.0671	–	1637.9 ± 1.2
x1 = 0.0706	–	1640.7 ± 1.2
x1 = 0.073	–	1642.4 ± 1.2
x1 = 0.0758	–	1644.4 ± 1.2
x1 = 0.0769	998.6 ± 1	–
x1 = 0.1002	999.37 ± 1.1	–
x1 = 0.1438	999.75 ± 1.1	–
x1 = 0.1845	999.44 ± 1.1	–
x1 = 0.2503	998.42 ± 1.2	–
x1 = 0.3	997.34 ± 1.2	–
x1 = 0.3343	996.61 ± 1.3	–
x1 = 0.4171	994.93 ± 1.4	–
x1 = 0.454	994.03 ± 1.4	–
x1 = 0.5003	993 ± 1.5	–
x1 = 0.5362	992.2 ± 1.5	–
x1 = 0.6177	990.7 ± 1.7	–
x1 = 0.6478	990.1 ± 1.7	–
x1 = 0.7025	989.2 ± 1.8	–
x1 = 0.7504	988.4 ± 1.9	–
x1 = 0.7927	987.6 ± 2	–
x1 = 0.8605	986.4 ± 2.1	–
x1 = 0.9004	985.7 ± 2.2	–
x1 = 0.9496	984.6 ± 2.3	–
x1 = 1	983.6 ± 2.1	–
